According to patent US11401286B2 (Tetra Discovery Partners, LLC, priority 2012, dated 2022):
Where a name gives a salt, the structure may show the parent alone.

target: PDE4D7 (Homo sapiens (Human), UniProt Q08499); conditions: read-out: PDE4D7 IC50
Sequence (Q08499 other isoform, or with tags, fused parts or gaps): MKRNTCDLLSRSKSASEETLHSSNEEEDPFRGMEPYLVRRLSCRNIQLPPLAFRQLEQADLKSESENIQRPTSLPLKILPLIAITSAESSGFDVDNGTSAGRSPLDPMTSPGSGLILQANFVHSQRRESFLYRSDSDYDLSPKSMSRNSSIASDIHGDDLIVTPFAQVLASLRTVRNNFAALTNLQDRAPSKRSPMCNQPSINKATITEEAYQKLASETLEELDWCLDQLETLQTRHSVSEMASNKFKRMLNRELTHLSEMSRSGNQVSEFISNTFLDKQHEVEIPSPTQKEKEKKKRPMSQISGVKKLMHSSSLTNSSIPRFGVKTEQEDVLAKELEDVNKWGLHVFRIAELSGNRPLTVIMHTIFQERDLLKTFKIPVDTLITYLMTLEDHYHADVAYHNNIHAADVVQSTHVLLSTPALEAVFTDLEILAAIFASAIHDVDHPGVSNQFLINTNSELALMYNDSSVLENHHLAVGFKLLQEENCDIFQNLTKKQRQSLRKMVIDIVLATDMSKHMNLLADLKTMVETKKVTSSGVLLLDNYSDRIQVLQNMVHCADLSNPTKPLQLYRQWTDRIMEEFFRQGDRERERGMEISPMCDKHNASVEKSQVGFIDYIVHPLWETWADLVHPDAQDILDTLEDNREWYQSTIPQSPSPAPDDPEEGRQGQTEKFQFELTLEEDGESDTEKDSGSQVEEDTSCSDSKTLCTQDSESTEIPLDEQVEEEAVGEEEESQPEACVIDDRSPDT

| Compound | IC50 |
| --- | --- |
| O=C(O)COc1ccc(Nc2cc(-c3cccc(Cl)c3)nc3c2CCC3)cc1 [Example 4, 2-[4-[[2-(3-Chlorophenyl)-6,7-dihydro-5H-cyclopenta[b]pyridin-4-yl]amino]phenoxy]acetic acid] | > 1 µM |

same assay, conditions: read-out: PDE4D7 IC50; PDE4D7 without asterisk

| Compound | IC50 |
| --- | --- |
| O=C(O)c1ccc(Nc2cc(-c3cccc(Cl)c3)nc3c2CCC3)cc1 [Example 5, 4-[[2-(3-Chlorophenyl)-6,7-dihydro-5H-cyclopenta[b]pyridin-4-yl]amino]benzoic acid] | > 1 µM |
| OCCc1ccc(Nc2cc(-c3cccc(Cl)c3)nc3c2CCC3)cc1 [Example 6, 2-[4-[[2-(3-Chlorophenyl)-6,7-dihydro-5H-cyclopenta[b]pyridin-4-yl]amino]phenyl]ethanol] | > 1 µM |
| CCc1c(Nc2ccc(CC(=O)O)cc2)cc(-c2cccc(Cl)c2)nc1C [Example 7, 2-[4-[[6-(3-Chlorophenyl)-3-ethyl-2-methyl-4-pyridyl]amino]phenyl]acetic acid] | > 1 µM |
| O=C(O)CCCc1ccc(Nc2cc(-c3cccc(Cl)c3)nc3c2CCC3)cc1 [Example 8, 4-[4-[[2-(3-Chlorophenyl)-6,7-dihydro-5H-cyclopenta[b]pyridin-4-yl]amino]phenyl]butanoic acid] | > 1 µM |
| O=C(O)Cc1ccc(Nc2nc(-c3ccc(Cl)s3)nc3c2CCC3)cc1 [Example 9, 2-[4-[[2-(5-Chloro-2-thienyl)-6,7-dihydro-5H-cyclopenta[d]pyrimidin-4-yl]amino]phenyl]acetic acid] | > 1 µM |
| O=C(O)Cc1ccc(Nc2nc(-c3cccc(Cl)c3)nc3c2CCC3)cc1 [Example 10, 2-[4-[[2-(3-Chlorophenyl)-6,7-dihydro-5H-cyclopenta[d]pyrimidin-4-yl]amino]phenyl]acetic acid] | > 1 µM |
| CC(=O)NC(C(=O)O)c1ccc(Nc2nc(-c3ccc(Cl)s3)nc3c2CCC3)cc1 (stereo not drawn) [Example 11, 2-Acetamido-2-[4-[[2-(5-chloro-2-thienyl)-6,7-dihydro-5H-cyclopenta[d]pyrimidin-4-yl]amino]phenyl]acetic acid] | > 1 µM |
| NC(C(=O)O)c1ccc(Nc2nc(-c3ccc(Cl)s3)nc3c2CCC3)cc1 (stereo not drawn) [Example 12, 2-Amino-2-[4-[[2-(5-chloro-2-thienyl)-6,7-dihydro-5H-cyclopenta[d]pyrimidin-4-yl]amino]phenyl]acetic acid hydrochloride] | > 1 µM |
| O=C(O)CCc1ccc(Nc2nc(-c3ccc(Cl)s3)nc3c2CCC3)cc1 [Example 15, 3-[4-[[2-(5-Chloro-2-thienyl)-6,7-dihydro-5H-cyclopenta[d]pyrimidin-4-yl]amino]phenyl]propanoic acid] | > 1 µM |
| O=C(O)CCc1ccc(Nc2nc(-c3cccc(Cl)c3)nc3c2CCC3)cc1 [Example 16, 3-[4-[[2-(3-Chlorophenyl)-6,7-dihydro-5H-cyclopenta[d]pyrimidin-4-yl]amino]phenyl]propanoic acid] | > 1 µM |
| N#CCc1ccc(Nc2nc(-c3cccc(Cl)c3)nc3c2CCC3)cc1 [Example 19, 2-[4-[[2-(3-chlorophenyl)-6,7-dihydro-5H-cyclopenta[d]pyrimidin-4-yl]amino]phenyl]acetonitrile] | > 1 µM |
| NC(=O)Cc1ccc(Nc2nc(-c3ccc(Cl)s3)nc3c2CCC3)cc1 [Example 20, 2-[4-[[2-(5-chloro-2-thienyl)-6,7-dihydro-5H-cyclopenta[d]pyrimidin-4-yl]amino]phenyl]acetamide] | < 1 µM |
| NC(=O)Cc1ccc(Nc2nc(-c3cccc(Cl)c3)nc3c2CCC3)cc1 [Example 21, 2-[4-[[2-(3-chlorophenyl)-6,7-dihydro-5H-cyclopenta[d]pyrimidin-4-yl]amino]phenyl]acetamide] | > 1 µM |
| Cc1nc(Nc2ccc(F)cc2)nc(-c2ccc(Cl)s2)n1 [Example 23, 4-(5-chlorothiophen-2-yl)-N-(4-fluorophenyl)-6-methyl-1,3,5-triazin-2-amine] | > 1 µM |
| Cc1nc(Nc2ccc(CC(=O)O)cc2)nc(-c2ccco2)n1 [Example 24, 2-(4-((4-(furan-2-yl)-6-methyl-1,3,5-triazin-2-yl)amino)phenyl)acetic acid] | > 1 µM |

Further lines, results first:

| IC50 | Compound |
| --- | --- |
| > 1 µM | CC(C)c1nc(Nc2ccc(CC(=O)O)cc2)nc(-c2ccc(Cl)s2)n1 [Example 25, 2-(4-((4-(5-chlorothiophen-2-yl)-6-isopropyl-1,3,5-triazin-2-yl)amino)phenyl)acetic acid] |
| > 1 µM | CC(C)c1nc(Nc2ccc(F)cc2)nc(-c2ccc(Cl)s2)n1 [Example 26, 4-(5-chlorothiophen-2-yl)-N-(4-fluorophenyl)-6-isopropyl-1,3,5-triazin-2-amine] |
| > 1 µM | CCc1nc(Nc2ccc(CC(=O)O)cc2)nc(-c2ccc(Cl)s2)n1 [Example 27, 2-(4-((4-(5-chlorothiophen-2-yl)-6-ethyl-1,3,5-triazin-2-yl)amino)phenyl)acetic acid] |
| > 1 µM | CCc1nc(Nc2ccc(F)cc2)nc(-c2ccc(Cl)s2)n1 [Example 28, 4-(5-chlorothiophen-2-yl)-6-ethyl-N-(4-fluorophenyl)-1,3,5-triazin-2-amine] |
| < 1 µM | CC(C)c1nc(Nc2ccc(C(=O)O)cc2)nc(-c2ccc(Cl)s2)n1 [Example 29, 4-(4-(5-chlorothiophen-2-yl)-6-isopropyl-1,3,5-triazin-2-ylamino)benzoic acid] |
| < 1 µM | CCc1nc(Nc2ccc(C(=O)O)cc2)nc(-c2ccc(Cl)s2)n1 [Example 30, 4-(4-(5-chlorothiophen-2-yl)-6-ethyl-1,3,5-triazin-2-ylamino)benzoic acid] |
| > 1 µM | Cc1nc(Nc2ccc(C(=O)O)cc2)nc(-c2ccc(Cl)s2)n1 [Example 31, 4-(4-(5-chlorothiophen-2-yl)-6-methyl-1,3,5-triazin-2-ylamino)benzoic acid] |
| > 1 µM | CCCc1nc(Nc2ccc(CC(=O)O)cc2)nc(-c2ccc(Cl)s2)n1 [Example 32, 2-(4-((4-(5-chlorothiophen-2-yl)-6-propyl-1,3,5-triazin-2-yl)amino)phenyl)acetic acid] |
| > 1 µM | CCCc1nc(Nc2ccc(C(=O)O)cc2)nc(-c2ccc(Cl)s2)n1 [Example 33, 4-((4-(5-chlorothiophen-2-yl)-6-propyl-1,3,5-triazin-2-yl)amino)benzoic acid] |
| > 1 µM | O=C(O)Cc1ccc(Nc2nc(-c3ccc(Cl)s3)nc(C3CC3)n2)cc1 [Example 34, 2-(4-(4-(5-chlorothiophen-2-yl)-6-cyclopropyl-1,3,5-triazin-2-ylamino)phenyl)acetic acid] |
| > 1 µM | COC(=O)Cc1ccc(Nc2nc(Cl)nc(-c3ccc(Cl)s3)n2)cc1 [Example 35, methyl 2-(4-((4-chloro-6-(5-chlorothiophen-2-yl)-1,3,5-triazin-2-yl)amino)phenyl)acetate] |
| > 1 µM | O=C(O)Cc1ccc(Nc2nc(-c3cccc(Cl)c3)nc(C3CC3)n2)cc1 [Example 36, 2-(4-((4-(3-chlorophenyl)-6-cyclopropyl-1,3,5-triazin-2-yl)amino)phenyl)acetic acid] |
| > 1 µM | O=C(O)Cc1ccc(Nc2nc(-c3ccc(Cl)cc3)nc(C3CC3)n2)cc1 [Example 37, 2-(4-((4-(4-chlorophenyl)-6-cyclopropyl-1,3,5-triazin-2-yl)amino)phenyl)acetic acid] |
| < 1 µM | O=C(O)c1ccc(Nc2nc(-c3ccc(Cl)cc3)nc(C3CC3)n2)cc1 [Example 38, 4-((4-(4-chlorophenyl)-6-cyclopropyl-1,3,5-triazin-2-yl)amino)benzoic acid] |
